This passage reports MIC and IC50 results from patent US12365656B2, “Oxazolidinone compounds and methods of use thereof as antibacterial agents” (priority 2019, dated 2025).

Converted amounts (≈) assume the structure as drawn. Like-named read-outs stand apart in the source and are kept apart here. A value given as a limit tells only on which side of the number the result lay.

Common to all, as to type: cell-based
Experiment [1] has as its system Mycobacterium tuberculosis (Mtb-GFP; H37Rv pMSP12::GFP). Briefly: microbe, parasite or virus in culture. Particulars: Mycobacterium tuberculosis, H37RV, 168 h, pH 6.8, read-out: Mtb Cho MITC95.
The test system is the same in experiment [2]. Description: microbe, parasite or virus in culture. Particulars: Mycobacterium tuberculosis, H37RV, 168 h, pH 6.8, read-out: Mtb Glu MITC95.
The subject of experiment [3] is mitochondrial protein synthesis in HepG2 cells. Briefly: Mitochondrial protein synthesis assay. Particulars: Homo sapiens, 96 h, 4 days, COX-1 relative to SDH-A / Janus Green, In Cell ELISA, read-out: MPS IC50.

For the molecule `Cc1cc(N2C[C@H](CO)OC2=O)ccc1C1(F)CCS(=O)(=O)CC1` [Example 35, 4-fluoro-4-{4-[(5R)-5-(hydroxymethyl)-2-oxo-1,3-oxazolidin-3-yl]-2-methylphenyl}-1λ^6-thiane-1,1-dione], the MIC was determined as 50 µM (≈ 17.9 µg/mL) in experiment [1] and 25 µM (≈ 8.94 µg/mL) in experiment [2]. Also, the IC50 in experiment [3] is more than 100 µM.

As for `O=C1O[C@@H](CO)CN1c1ccc(C2(F)CCS(=O)(=O)CC2)cc1` [Example 36, 4-fluoro-4-{4-[(5R)-5-(hydroxymethyl)-2-oxo-1,3-oxazolidin-3-yl]phenyl}-1λ^6-thiane-1,1-dione], the MIC turned out to be 38 µM (≈ 13 µg/mL) in experiment [1] and 50 µM (≈ 17.2 µg/mL) in experiment [2]. In addition, the IC50 in experiment [3] was more than 50 µM.

On to `O=C1O[C@@H](CO)CN1c1ccc(C2(F)CCS(=O)(=O)CC2)c(C(F)(F)F)c1` [Example 37, 4-fluoro-4-{4-[(5R)-5-(hydroxymethyl)-2-oxo-1,3-oxazolidin-3-yl]-2-(trifluoromethyl)phenyl}-1λ^6-thiane-1,1-dione], for which the MIC in experiment [1] and in experiment [2] was 50 µM (≈ 20.6 µg/mL) in each case. In experiment [3], the IC50 is more than 100 µM.

On to `O=C1O[C@@H](CO)CN1c1ccc(-c2ccc(S(=O)(=O)N3CCC3)cc2)c(F)c1` [Example 38, (5R)-3-[4′-(azetidine-1-sulfonyl)-2-fluoro[1,1′-biphenyl]-4-yl]-5-(hydroxymethyl)-1,3-oxazolidin-2-one], for which the MIC in experiment [1] and in experiment [2] was 6.3 µM (≈ 2.56 µg/mL) each time. For the same molecule, the IC50 in experiment [3] is more than 13 µM.

Take `CS(=O)(=O)Cc1ccc(-c2ccc(N3C[C@H](CO)OC3=O)cc2F)cc1` [Example 39]: the MIC in experiment [1] was 1.2 µM (≈ 0.455 µg/mL); in experiment [2] it was 1.6 µM (≈ 0.607 µg/mL). Also, the IC50 in experiment [3] came to 1.5 µM.

For `CC1(c2c(F)cc(N3C[C@H](CO)OC3=O)cc2F)CCS(=O)(=O)CC1` [Example 41, 4-{2,6-difluoro-4-[(5R)-5-(hydroxymethyl)-2-oxo-1,3-oxazolidin-3-yl]phenyl}-4-methyl-lλ^6-thiane-1,1-dione], the values for the MIC in experiment [1] and in experiment [2] were 9.4 µM (≈ 3.53 µg/mL) and 6.3 µM (≈ 2.36 µg/mL), respectively. For the same molecule, the IC50 in experiment [3] is more than 100 µM.

Consider `CC(=O)NC[C@H]1CN(c2ccc(N3CCOCC3)c(F)c2)C(=O)O1` [linezolid, reference compound], for which the MIC in experiment [1] is 3.14 µM (≈ 1.06 µg/mL); in experiment [2], 4.58 µM (≈ 1.55 µg/mL). For the same molecule, in experiment [3], the IC50 was 8 µM.
